{"source": "patent US20250101129A1", "about": "“AFFINITY SUBSTANCE, COMPOUND, AND ANTIBODY AND THEIR SALTS” (Ajinomoto Co., Inc., priority 2022, published 2025)", "test_system": "CD3-activated human T cells containing PD-1-positive cells", "assay": "Flow cytometry binding to CD3-activated human T cells", "format": "cell-based", "conditions": "primary antibody final concentration 20 g/mL as printed, Alexa Fluor 488 anti-human IgG secondary", "procedure": "The cells used were CD3-activated human T cells containing HER2-positive SKBR-3 cells, EGFR-positive A-431 cells, and PD-1-positive cells.\n200,000 cells cultured in D-MEM medium (Thermo Fisher Scientific, Inc.) supplemented with 10% FBS (Thermo Fisher Scientific, Inc.) were collected, and 20 μL of PBS containing Human TruStain FcX (Biolegend) was added, followed by blocking of Fc receptors on ice for 10 minutes. The primary antibody reaction was performed by adding the above-described antibodies as primary antibodies to a cell staining buffer (PBS containing 1% FBS) to a final concentration of 20 g/mL, adding 20 μL of the mixtures to the cells, and incubating them for 20 minutes on ice. The cells after the primary antibody reaction were washed twice with the cell staining buffer. The second antibody reaction was performed by adding 40 μL of Goat anti-Human IgG (H+L) Cross-Adsorbed Secondary Antibody, Alexa Fluor™488 (Thermo Fisher Scientific, Inc.) diluted with the cell staining buffer to 10 g/mL as the second antibody to the cells, and incubating the cells on ice for 20 minutes. The cells were washed twice with the cell staining buffer, and then subjected to analysis using Attune NxT Flow Cytometer (Thermo Fisher Scientific, Inc.).", "data": [{"substance": "pembrolizumab", "values": [{"measurement": "cells in which fluorescence was observed (positive rate), CD3-activated human T cells", "value": "about 23%"}]}]}
